In paper PMC11866022, “Long-Chain Cyclic Arylguanidines as Multifunctional Serotonin Receptor Ligands with Antiproliferative Activity” (ACS Omega, 2025):

Experiments:
5-HT6 = target: T1, 5-HT6 (Homo sapiens, UniProt P50406); test: Functional cAMP assay (LANCE Ultra), 5-HT6; format: cell-based; settings: Table 3, unit inferred, agonist mode
T1 construct: expressed in transfected cells; host or cells: HEK293

D2 = target: T2, D2 (Homo sapiens, UniProt P14416); test: Functional cAMP assay (LANCE Ultra), D2; format: cell-based; settings: Table 3, unit inferred, antagonist mode, 10 nM dopamine
T2 construct: expressed in transfected cells; host or cells: HEK293
Experimental: (§1) Their functional activity was also evaluated by assessing their ability to inhibit agonist-induced cAMP production in HEK293 cells (Table 3). Extended radioisotope tests were aimed at detecting potential affinity for other aminergic receptors, whose role in cancer treatment may be important. Functions were tested for all receptors. The essence of functional tests results from the fact that serotonin stimulates tumor progression. Therefore, the ligand should have the potential to reduce its concentration, i.e., act as an antagonist.[39]
(§2) The detailed procedure is presented in previous publications.[53] The functional activity of the compounds was assessed using the LANCE Ultra cAMP detection kit (PerkinElmer). […] For other receptors (5-HT7R, 5-HT1AR, and 5-HT6R), 5-CT was used at 10, 100, and 1000 nM, respectively. Each compound was tested in triplicate across eight concentrations. The inhibitory constant (Kb) for each antagonist was calculated using the Cheng–Prusoff equation.

5-HT7 = target: T3, 5-HT7 (Homo sapiens, UniProt P34969); test: Functional cAMP assay (LANCE Ultra), 5-HT7; format: cell-based
T3 construct: expressed in transfected cells; host or cells: HEK293
Experimental: as §1, §2

[1] = tested on: Feline catus astrocyte (PG-4); test: Cytotoxicity, PG-4 astrocytes; format: cell-based; settings: Felis catus; normal astrocyte line
Experimental: The chosen group of ligands was further examined for their ability to inhibit proliferation across multiple cancer cell lines related to the CNS system (1321N1, U87MG, LN-229, and U-251). These cell lines were characterized by different mutation profiles, the main one being the variable status of the p53 protein. In detail, U87MG cells have a wild-type p53 protein, while astrocytoma and the rest of GBM cells harbor mutated p53 protein. Additional assays were performed on MCF7 breast cancer and AsPC-1 pancreatic cancer cells. The wide range of tested lines was aimed at screening the anticancer potential of the tested compounds. The first represents one of the most common and the second one of the most aggressive cancers in the world. Comparing the activity of compounds on GBM cells to other types of cancer may reveal their selectivity and usefulness in targeted therapies. The cytotoxicity of the compounds on normal human astrocytes (NHA) and Feline catus astrocyte (PG-4) was determined. Tests on normal lines serve to verify the potential toxicity of the tested compounds on healthy cells. Due to the targeting of CNS tumors, astrocytes were selected as normal lines.

CYP3A4 = target: T4, CYP3A4 (Homo sapiens, UniProt P08684); test: P450-Glo assay, CYP3A4; format: in vitro ADME
T4 construct: purchased Promega
Text: (§3) In order to evaluate excretion, we examined the effect on the activity of two cytochrome P-450 isoforms. Inhibition of their activity may lead to the occurrence of drug–drug interactions.

CYP2D6 = target: T5, CYP2D6 (Homo sapiens, UniProt P10635); test: P450-Glo assay, CYP2D6; format: in vitro ADME
T5 construct: purchased Promega
Text: as §3

Danio rerio [2] = test: Fish embryo toxicity test (OECD 236); format: in vivo; settings: Danio rerio embryos, 96 h of exposure
Experimental: Two compounds, PP 10 and PP 15, were tested for cardiotoxicity in the Danio rerio experimental model (OECD 236 test). […] To assess potential neurotoxic effects, locomotor activity was examined in the Danio rerio model. Zebrafish larvae’s response to light and dark transitions serves as a useful method for detecting neurotoxicity. […] In our experiment, we switched from light to dark conditions, as zebrafish larvae are known to avoid light and seek darker areas. This behavior helps them evade predators and maintain ideal environmental conditions.
(§4) Figure 4 A: Toxicity of PP 10 and PP 15in vivo in the Danio reiro embryo toxicity test. […] Cardiotoxicity of compounds B: PP 10 and C: PP 15 was evaluated by measuring the heart rate (beats per minute) in 5-dpf Danio rerio larvae, maintained in the E3 fish embryo growth medium. Statistical analysis was performed using GraphPad Prism 10.0.0, with one-way ANOVA followed by Dunnett’s comparison test (*p < 0.05, compared to the negative control E3).
The toxicity of compounds was evaluated using two tests: the fish embryo toxicity (FET) test and neurotoxicity assessment.[53] […] Acute toxicity was assessed by monitoring signs such as coagulation of fertilized eggs, somite formation absence, tailbud separation, and lack of heartbeat. The LD50 value was calculated, and cardiovascular effects were monitored through heartbeat observations.

Danio rerio [3] = settings: in vivo
Experimental: (§5) Two compounds, PP 10 and PP 15, were tested for cardiotoxicity in the Danio rerio experimental model (OECD 236 test). […]. To assess potential neurotoxic effects, locomotor activity was examined in the Danio rerio model. Zebrafish larvae’s response to light and dark transitions serves as a useful method for detecting neurotoxicity. […] In our experiment, we switched from light to dark conditions, as zebrafish larvae are known to avoid light and seek darker areas. This behavior helps them evade predators and maintain ideal environmental conditions. […]
as §4, with “E3). […] | The toxicity of compounds was evaluated using two tests: the fish embryo toxicity (FET) test and neurotoxicity assessment.[53] […] Acute toxicity was assessed by monitoring signs such as coagulation of fertilized eggs, somite formation absence, tailbud separation, and lack of heartbeat. The LD50 value was calculated, and cardiovascular effects were monitored through heartbeat observations.” for “E3).”

Danio rerio [4] = settings: in vivo; remark: listed apart in the source
Experimental: as §5
Figure 5 A: In vivo toxicity assessment of PP 10 and PP 15 in Danio rerio using the maximum tolerated concentration (MTC) toxicity test. B: Locomotor activity under light conditions, quantified as the distance (in cm) traveled per minute by 5-day postfertilization (dpf) Danio rerio larvae. C: Locomotor activity under dark conditions, with the distance (in cm) traveled per minute recorded for 5-dpf larvae. D: Comparison of activity during the transition from light to dark conditions. E3 refers to the fish embryo growth medium. […]
A locomotor activity test was conducted on zebrafish larvae ([…]). […] The distance traveled by the larvae was measured in both light and dark conditions using EthoVision XT15 software, and the mean distance per minute was calculated for each condition to assess locomotor activity. […]

T4 sequence (P08684 whole entry): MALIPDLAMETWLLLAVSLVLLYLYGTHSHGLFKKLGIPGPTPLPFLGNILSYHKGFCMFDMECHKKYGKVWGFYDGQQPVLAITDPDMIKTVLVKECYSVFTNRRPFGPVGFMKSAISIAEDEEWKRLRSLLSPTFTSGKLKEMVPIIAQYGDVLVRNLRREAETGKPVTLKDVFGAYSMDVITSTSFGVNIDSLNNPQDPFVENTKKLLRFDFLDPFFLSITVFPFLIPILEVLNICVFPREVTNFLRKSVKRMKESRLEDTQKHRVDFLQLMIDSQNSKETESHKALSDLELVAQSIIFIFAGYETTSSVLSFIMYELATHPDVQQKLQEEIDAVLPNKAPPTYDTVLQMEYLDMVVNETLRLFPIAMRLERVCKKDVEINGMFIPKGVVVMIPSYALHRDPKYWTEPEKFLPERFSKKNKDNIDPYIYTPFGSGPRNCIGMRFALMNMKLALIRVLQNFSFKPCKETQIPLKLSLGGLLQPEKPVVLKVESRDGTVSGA
T3 sequence (P34969 whole entry, species assumed): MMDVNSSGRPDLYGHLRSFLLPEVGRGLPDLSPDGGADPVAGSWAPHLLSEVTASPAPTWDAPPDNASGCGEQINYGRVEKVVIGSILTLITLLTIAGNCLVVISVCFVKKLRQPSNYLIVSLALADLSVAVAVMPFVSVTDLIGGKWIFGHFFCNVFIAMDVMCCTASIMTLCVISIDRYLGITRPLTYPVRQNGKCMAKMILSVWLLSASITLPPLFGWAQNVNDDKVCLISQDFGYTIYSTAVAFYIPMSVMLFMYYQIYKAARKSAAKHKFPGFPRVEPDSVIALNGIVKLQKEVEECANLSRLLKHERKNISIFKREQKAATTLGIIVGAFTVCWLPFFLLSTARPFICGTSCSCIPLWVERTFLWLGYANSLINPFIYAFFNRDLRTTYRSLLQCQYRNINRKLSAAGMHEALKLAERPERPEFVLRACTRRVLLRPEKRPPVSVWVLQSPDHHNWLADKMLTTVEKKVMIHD
T5 sequence (P10635 whole entry): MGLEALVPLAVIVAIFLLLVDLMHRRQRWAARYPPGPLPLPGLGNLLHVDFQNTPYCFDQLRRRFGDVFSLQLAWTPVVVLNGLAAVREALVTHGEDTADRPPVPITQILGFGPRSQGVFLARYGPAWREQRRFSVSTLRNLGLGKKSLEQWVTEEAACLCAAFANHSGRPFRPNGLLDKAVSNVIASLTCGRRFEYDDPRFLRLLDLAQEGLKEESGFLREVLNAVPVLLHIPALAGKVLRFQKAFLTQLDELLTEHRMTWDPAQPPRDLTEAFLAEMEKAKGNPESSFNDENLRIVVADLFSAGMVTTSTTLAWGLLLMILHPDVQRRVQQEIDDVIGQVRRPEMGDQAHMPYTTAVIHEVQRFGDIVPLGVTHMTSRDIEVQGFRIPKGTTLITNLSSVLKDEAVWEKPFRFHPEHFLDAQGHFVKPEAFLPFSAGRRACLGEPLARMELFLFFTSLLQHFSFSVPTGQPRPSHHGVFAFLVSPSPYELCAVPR
T2 sequence (P14416 whole entry): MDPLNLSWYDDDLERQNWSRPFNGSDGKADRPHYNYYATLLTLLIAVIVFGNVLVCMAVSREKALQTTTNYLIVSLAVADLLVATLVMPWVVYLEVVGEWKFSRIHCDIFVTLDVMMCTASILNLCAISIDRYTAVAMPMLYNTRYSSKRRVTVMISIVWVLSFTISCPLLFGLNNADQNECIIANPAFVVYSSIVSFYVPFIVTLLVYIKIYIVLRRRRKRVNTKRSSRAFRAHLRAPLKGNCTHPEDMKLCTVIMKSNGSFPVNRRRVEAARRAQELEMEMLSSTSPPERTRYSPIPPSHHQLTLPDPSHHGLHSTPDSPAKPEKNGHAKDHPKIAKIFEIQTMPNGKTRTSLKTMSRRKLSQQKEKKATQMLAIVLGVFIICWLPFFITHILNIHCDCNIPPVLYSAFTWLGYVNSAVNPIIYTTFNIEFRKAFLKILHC
T1 sequence (P50406 whole entry): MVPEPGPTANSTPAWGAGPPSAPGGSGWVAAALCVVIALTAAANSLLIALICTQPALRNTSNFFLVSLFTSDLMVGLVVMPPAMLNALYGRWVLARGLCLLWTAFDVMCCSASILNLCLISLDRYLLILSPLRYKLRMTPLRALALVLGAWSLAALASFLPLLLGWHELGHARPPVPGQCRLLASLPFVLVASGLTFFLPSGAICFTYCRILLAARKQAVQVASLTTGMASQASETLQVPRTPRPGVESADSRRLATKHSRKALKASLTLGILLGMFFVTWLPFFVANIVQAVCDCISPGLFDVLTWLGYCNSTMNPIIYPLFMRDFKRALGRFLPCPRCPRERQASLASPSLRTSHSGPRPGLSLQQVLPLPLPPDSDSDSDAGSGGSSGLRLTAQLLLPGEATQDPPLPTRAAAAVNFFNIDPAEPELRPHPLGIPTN

Row | EC50 (5-HT6) [nM] | SMILES | Kb (D2) [nM] | Kb (5-HT7; Table 3, unit inferred, cAMP, antagonist mode, 5-CT) [nM] | function at 5-HT7 (5-HT7; in words) | IC50 [1] [nM] | impact on the activity of CYP3A4 (CYP3A4) | impact on the activity of CYP2D6 (CYP2D6) | LD50 / LC50 (Figure 4) (Danio rerio [2]) [µg/mL] | cardiotoxic effects (heart rate) (Danio rerio [3]) | neurotoxic effects (locomotor activity, light to dark) (Danio rerio [4])
1 | 367 | O=S(=O)(c1cccc2ccccc12)N1CCN(CCNC2=Nc3ccccc3CN2)CC1 [PP 6, N-{2-[4-(Naphthalene-1-sulfonyl)piperazin-1-yl]ethyl}-3,4-dihydroquinazolin-2-amine] |  |  |  |  |  |  |  |  | 
2 |  | CC1NC(NCCCCCCNS(=O)(=O)c2cccc3ccccc23)=Nc2ccccc21 (stereo not drawn) [PP 10, N-{6-[(4-Methyl-3,4-dihydroquinazolin-2-yl)amino]hexyl}naphthalene-1-sulfonamide] | 1810 | 236 | antagonist | > 25000 | weakest interaction | strong effect at a concentration of 1 μM | 15.34 | Neither compound displayed cardiotoxic effects | minimal neurotoxic effects
3 | 488 | CC1NC(NCCCCCCNS(=O)(=O)c2c(Cl)ccc3ccccc23)=Nc2ccccc21 (stereo not drawn) [PP 13, 2-Chloro-N-{6-[(4-methyl-3,4-dihydroquinazolin-2-yl)amino]hexyl}naphthalene-1-sulfonamide] | 858 |  |  |  |  |  |  |  | 
4 |  | O=S(=O)(NCCCCCCNc1ncc2ccccc2n1)c1cccc2ccccc12 [PP 15, N-{6-[(Quinazolin-2-yl)amino]hexyl}naphthalene-1-sulfonamide] |  |  |  | > 25000 | passive | passive | 2.147 | Neither compound displayed cardiotoxic effects | minimal neurotoxic effects
